Reference: paper PMC5618341, “Controlled inhibition of methyltransferases using photoswitchable peptidomimetics: towards an epigenetic regulation of leukemia” (Chemical Science, 2017)
Where two headings read alike, the source gives them in different places. Starred links: 1 amine or outer side, 2 acyl side, 3 side chain; linkers in the order of their positions; H or OH if unused. Non-standard residues stand in square brackets, D forms with d. Residues, ends and D or L forms follow the SMILES beside them. AMPB = O=C(c1ccc(N=Nc2ccc(CN[*:1])cc2)cc1)[*:2]; Ahx = NCCCCCC(=O)O; βAla = NCCC(=O)O

What was measured:
[1] = Stability against GSH reduction; format: physicochemical; details: 10 mM GSH, four days, kept in the dark
Description: (§1) We then examined the potential of 16 and 17 to control externally the cellular response in proliferation assays. Thus, both isomers of both peptidomimetics were incubated at different concentrations for four days. After two days of incubation, the cells containing the cis isomers were irradiated at 430 nm for 90 seconds in a single isomerization cycle with a custom-made 6-well plate LED array.
H-bond cut off < 3.5 Å, Van der Waals: […]. N 3.81
Evaluation of Stability against GSH-reduction of Peptides
To test the stability of the AMPB-containing peptides 16 and 17 against reduction by glutathione (GSH), the peptides were incubated with GSH for 4 days.
Figure S72. Left: HPLC chromatograms of peptides, incubated with 10 mM GSH, recorded after different time periods. Left: peptide 16. Right: peptide 17. […]
peptides 16 and 17 (10 μM) in 0.1 M phosphate buffer pH = 7 were mixed giving final concentrations of 10 mM of GSH and 9.6 μM of the peptides, respectively. After different time periods, HPLC chromatograms of these mixtures were recorded (gradient: 5-40% B) (Figure […]
In Vitro Methyl Transferase Assay with MLL1 Core Complex
Full length constructs of both, RbBP5 (residues 1−538) and Ash2L (residues 1−635), were used for expression. […] MLL1, WDR5, RbBP5, and ASH2L were expressed as His-SUMO fusions from the pET28A-SUMO vector in BL21 DE3 pLyss codon (+) cells at 16 °C overnight. […]

WDR5Δ23 [2] = biological target: T1, WDR5Δ23 (Homo sapiens, UniProt P61964); assay: Fluorescence polarization (FP)-based competitive binding assay
T1 construct: His6-SUMO (N, cleaved yes); made in house; host or cells: E. coli DH5α (so in the source)

[3] = tested on: Deptor gene (MLL1 target gene); assay: Real-time PCR of Deptor mRNA expression; format: cell-based, mouse; details: 10 μM, 96 h, RT-PCR, standardized to GAPDH, vs Mock
Excerpt: Finally, we tested whether our probe acts as an optoepi-genetic inhibitor and controls expression of MLL1 target genes. We used the Deptor gene as a reporter, given its importance in hematopoiesis and leukemogenesis,[51],[52] as well as significant regulation by MLL1 inhibition.[53] To this end, we examined Deptor expression by real-time PCR (RT-PCR). […] Of note, a small but significant (p = 0.008) difference between cis and trans isomers was observed. […] There is no statistically significant difference between cis isomer of 17 and the control.
Fig. 8 Relative Deptor mRNA expression levels in murine MLL-AF9-transduced mouse bone marrow cells after 96 h of incubation at 10 μM; they were analysed by RT-PCR and standardized to the endogenous GAPDH control. The significance is corroborated by the p-value.
Real Time Quantitative PCR Analysis of Deptor Gene
Murine MLL1-AF9 transformed bone marrow cells were obtained by transducing normal murine bone marrow cells with MLL1-AF9 oncogene according to the procedures described […]
100 mM stock) isomers, of peptides 7, 16, 17, as well as the peptides 18 and 19 were […]
The transformed cells were treated with different concentrations of the respective peptide (1.0, 5.0, 10 μM) and Mock (0.1% DMSO), giving a final concentration of 0.1% DMSO in all the samples. […] Relative quantification of each gene transcript was carried out as described previously.[28] […]

[4] = Proliferation / cell viability assay (CellTiter-Glo); format: cell-based, mouse; details: trans isomer, 2.5 μM concentration, 96 h; read-out: viable cells
Description: We initially studied the cellular uptake and cell viability of our compounds in murine MLL-AF9-transduced mouse bone marrow cells (Fig. 5). In line with our expectations, peptidomimetics 16 and 17 that contained peptide 7 within their sequence are the ones that inhibited the cell proliferation of leukemia. […] Thus, while in the case of the trans isomer of peptidomimetic 16 we already determined less than 50% of viable cells at 2.5 μM concentration, with the WIN-containing conjugates 20 and 21 we measured 87% and 96% of viable cells at 50 μM concentration, respectively.
as §1
MLL-AF9-transduced mouse bone marrow was cultured in IMDM medium + 15% FBS and supplemented with 10 ng/mL interleukin-3 (IL-3) at each passage, every other day.
DMSO) isomers, of peptides 7, 16, 17, as well as the peptides 18 and 19 were diluted from stock to culture media containing a 0.1% DMSO final concentration. For viability assays, […]
72 h and DMSO as control . For the cis-trans group, after 48 h treatment with cis peptides, the plate was irradiated at […] for 90 sec and continued to culture for 2 days in the dark.
Viability was determined using the CellTiter-Glo Kit (Promega) according to the a a ’ d . was monitored on a Molecular Devices plate reader.

WDR5Δ23 [5] = biological target: T1, WDR5Δ23; set-up: method as in PMID 20575550; details: interaction with WDR5; cited from earlier work
[6] = biological target: MLL1 core complex (MLL1, WDR5, RbBP5, and ASH2L) (Homo sapiens, UniProt P61964); details: cis vs trans
Description: To test this, we studied the inhibition of MLL1 H3K4 methyltransferase activity through the previously reported in vitro HMT assay using the MLL1 core complex (i.e. MLL1, WDR5, RbBP5, and ASH2L) and the H3 20mer peptide as substrate.[17]
In Vitro Histone Methyltransferase (HMT) Assay
The HMT assay was performed, as previously described[25] with slight modifications, in 50 mM Tris pH 8.0, 50 mM NaCl, 1.0 mM DTT, 5 mM MgCl2 at room temperature. Each reaction contained 1.5 μM of the cofactor 3H-S-adenosylmethionine (Perkin-Elmer). H31-21 peptide was used as the substrate at 250 μM. […] Reactions were initiated by addition of the H3/SAM and allowed to proceed for 60 min before preparing scintillation counting. To count samples, reactions were spotted on separate squares of P81 filter paper (Millipore) and precipitated by submerging in freshly prepared 50 mM sodium bicarbonate buffer pH = 9.0. After washing and drying, the samples were vortexed in Ultima Gold scintillation fluid and counted.

[7] = non-irradiated peptide (trans isomer), 72 nM WDR5Δ23, 20 nM tracer 22, read-out: IC50, non-irradiated (trans)
[8] = non-irradiated peptide (trans isomer), 72 nM WDR5Δ23, 20 nM tracer 22, read-out: Ki, non-irradiation (trans)

Row | Molecule | stability of cis isomer against glutathione [1] | IC50 (WDR5Δ23 [2]; [7]) [nM] | Ki (WDR5Δ23 [2]; [8]) [nM] | Deptor mRNA expression (in words) [3] | further results
1 | CC(C)C[C@H](NC(=O)[C@H](Cc1c[nH]cn1)NC(=O)[C@@H](NC(=O)c1ccc(N=Nc2ccc(CNC(=O)[C@H](C)NC(=O)[C@H](CCCNC(=N)N)NC(=O)[C@H](C)NC(=O)[C@@H](N)CO)cc2)cc1)C(C)C)C(=O)N[C@@H](CCCNC(=N)N)C(=O)N[C@@H](CCCCN)C(=O)N[C@@H](CO)C(=O)N[C@@H](CCCNC(=N)N)C(=O)NCCCCCC(=O)N[C@@H](CCCNC(=N)N)C(=O)N[C@@H](CCCNC(=N)N)C(=O)NCCCCCC(=O)N[C@@H](CCCNC(=N)N)C(=O)N[C@@H](CCCNC(=N)N)C(=O)NCCCCCC(=O)N[C@@H](CCCNC(=N)N)C(=O)N[C@@H](CCCNC(=N)N)C(=O)NCCCCCC(=O)N[C@@H](CCCNC(=N)N)C(=O)NCCCCCC(=O)NCCC(N)=O [peptide 17, H2N-SARA-AMPB-VHLRKS-(RahxR)4RAhxB-NH2] (H-SARA[AMPB]VHLRKSR[Ahx]RR[Ahx]RR[Ahx]RR[Ahx]R[Ahx][βAla]-NH2) | suitable cis/trans ratio | 120 ± 25 | 0.925 ± 0.39 | – | –
2 | N=C(N)NCCC[C@H](NC(=O)[C@H](CCCNC(=N)N)NC(=O)[C@H](CCCNC(=N)N)NC(=O)[C@H](CCCNC(=N)N)NC(=O)[C@H](CCCNC(=N)N)NC(=O)[C@H](CCCNC(=N)N)NC(=O)[C@H](CCCNC(=N)N)NC(=O)[C@@H](N)CCCNC(=N)N)C(N)=O [peptide 18] | – | – | – | not affected | –
3 | CC(C)C[C@H](NC(=O)[C@H](Cc1c[nH]cn1)NC(=O)[C@@H](NC(=O)c1ccc(N=Nc2ccc(CNC(=O)[C@H](C)NC(=O)[C@H](CCCNC(=N)N)NC(=O)[C@H](C)NC(=O)[C@@H](N)CO)cc2)cc1)C(C)C)C(=O)N[C@@H](CCCNC(=N)N)C(=O)N[C@@H](CCCCN)C(=O)N[C@@H](CO)C(=O)N[C@@H](CCCNC(=N)N)C(=O)N[C@@H](CCCNC(=N)N)C(=O)N[C@@H](CCCNC(=N)N)C(=O)N[C@@H](CCCNC(=N)N)C(=O)N[C@@H](CCCNC(=N)N)C(=O)N[C@@H](CCCNC(=N)N)C(=O)N[C@@H](CCCNC(=N)N)C(=O)N[C@@H](CCCNC(=N)N)C(N)=O [peptide 16, H2N-SARA-AMPB-VHLRKS-R8-NH2] (H-SARA[AMPB]VHLRKSRRRRRRRR-NH2) | suitable cis/trans ratio | 135 ± 5 | 1.18 ± 0.095 | – | viability at 2.5 µM [4]: < 50%
4 | N=C(N)NCCC[C@H](NC(=O)CCCCCNC(=O)[C@H](CCCNC(=N)N)NC(=O)[C@H](CCCNC(=N)N)NC(=O)CCCCCNC(=O)[C@H](CCCNC(=N)N)NC(=O)[C@H](CCCNC(=N)N)NC(=O)CCCCCNC(=O)[C@H](CCCNC(=N)N)NC(=O)[C@H](CCCNC(=N)N)NC(=O)CCCCCNC(=O)[C@@H](N)CCCNC(=N)N)C(=O)NCCCCCC(=O)NCCC(N)=O [peptide 19] (H-R[Ahx]RR[Ahx]RR[Ahx]RR[Ahx]R[Ahx][βAla]-NH2) | – | – | – | not affected | –
5 | Ac-ARAEVHLRKS-NH2 [peptide 2] | – | – | – | – | Ki (WDR5Δ23 [5]): 3 nM
6 | CC(C)C[C@H](NC(=O)[C@H](Cc1c[nH]cn1)NC(=O)[C@@H](NC(=O)c1ccc(N=Nc2ccc(CNC(=O)[C@H](C)NC(=O)[C@H](CCCNC(=N)N)NC(=O)[C@H](C)NC(=O)[C@@H](N)CO)cc2)cc1)C(C)C)C(=O)N[C@@H](CCCNC(=N)N)C(=O)N[C@@H](CCCCN)C(=O)N[C@@H](CO)C(N)=O [peptide 7, H2N-SARAXVHLRKS-CONH2] (H-SARA[AMPB]VHLRKS-NH2) | – | 146 ± 21 | 1.25 ± 0.36 | – | difference in IC50 between both isomers [6]: more than 15 fold; IC50 (WDR5Δ23 [2]; IC50 cis (with 5 nM tracer), cis isomer (366 nm), 20 nM WDR5Δ23, 5 nM tracer 22): 147 ± 14 nM; IC50 (WDR5Δ23 [2]; IC50 trans (with 5 nM tracer), trans isomer, 20 nM WDR5Δ23, 5 nM tracer 22): 57 ± 11 nM; Ki (WDR5Δ23 [2]; Ki cis (with 5 nM tracer), cis isomer (366 nm), 20 nM WDR5Δ23, 5 nM tracer 22): 6.37 ± 1 nM; Ki (WDR5Δ23 [2]; Ki trans (with 5 nM tracer), trans isomer, 20 nM WDR5Δ23, 5 nM tracer 22): 2.03 ± 0.42 nM
